MIC and MBC data for 14 compounds are collected here from ChEMBL document CHEMBL1157018, “Synthesis and antibacterial activity of 5-ylidenethiazolidin-4-ones and 5-benzylidene-4,6-pyrimidinediones” (2010).

≈ marks a conversion by molar mass, not a printed value.

For orientation: MIC means the lowest concentration that inhibits growth of the organism. Read a high MIC as a less susceptible organism. In general, MBC refers to the smallest concentration meeting the test's criterion for killing.

What all share (type): functional
Test [1] concerns Staphylococcus aureus. The test can be described thus: Antibacterial activity against Staphylococcus aureus ATCC 29213 after 18 to 24 hrs.
Another test has as its system Enterococcus faecalis. Nature of the test: Antibacterial activity against Enterococcus faecalis ATCC 29212 after 18 to 24 hrs.
For test [2], the system named is Staphylococcus aureus. Nature of the test: Antibacterial activity against methicillin-resistant Staphylococcus aureus ATCC 43300 after 18 to 24 hrs.
In a further test the test system is Streptococcus pneumoniae. Nature of the test: Antibacterial activity against Streptococcus pneumoniae ATCC 49619 after 18 to 24 hrs.
The subject of the next test is Streptococcus pyogenes. The test can be described thus: Antibacterial activity against Streptococcus pyogenes ATCC 19615 after 18 to 24 hrs.
Another test has as its system Escherichia coli. Nature of the test: Antibacterial activity against Escherichia coli ATCC 25922 after 18 to 24 hrs.
In the next test the test system is Pseudomonas aeruginosa. Nature of the test: Antibacterial activity against Pseudomonas aeruginosa ATCC 27853 after 18 to 24 hrs.

Consider `O=C1NC(=S)S/C1=C\c1ccc(F)c(F)c1F`, for which the MIC in the test on Staphylococcus aureus [1] was 0.5 µg/mL (≈ 1.82 µM); with Enterococcus faecalis, more than 128 µg/mL; against Staphylococcus aureus [2], 32 µg/mL (≈ 116 µM); against Escherichia coli it was more than 128 µg/mL; with Pseudomonas aeruginosa, more than 128 µg/mL. The MBC with Streptococcus pneumoniae was 64 µg/mL (≈ 232 µM); with Streptococcus pyogenes, more than 128 µg/mL.

For the compound `O=C1NC(=S)S/C1=C\c1ccc(O)c(O)c1O`, the MIC in the test on Staphylococcus aureus [1] and against Enterococcus faecalis was more than 128 µg/mL in each case.

Consider `N#Cc1ccc(CN2C(=O)C(C/C=C3\SC(=S)NC3=O)Oc3ccccc32)cc1` (stereo not drawn), for which the MIC is 32 µg/mL (≈ 75.9 µM) against Staphylococcus aureus [1], 32 µg/mL (≈ 75.9 µM) in the test with Enterococcus faecalis, more than 128 µg/mL in the test on Escherichia coli and more than 128 µg/mL against Pseudomonas aeruginosa.

For `COc1cc(C=C2C(=O)NC(=S)NC2=O)cc(OC)c1OC`, the MIC against Staphylococcus aureus [1], in the test on Enterococcus faecalis, in the test with Escherichia coli and against Pseudomonas aeruginosa was more than 128 µg/mL each time.

With `Cl.N#Cc1ccc(CN2C(=O)C(CCOc3ccc(CCN)cc3)Oc3ccccc32)cc1` (stereo not drawn), the MIC in the test with Staphylococcus aureus [1] and in the test on Enterococcus faecalis was 64 µg/mL in each case.

As for `COc1cc(/C=C2\SC(=S)NC2=O)cc(OC)c1OC`, the MIC in the test with Staphylococcus aureus [1] is 8 µg/mL (≈ 25.7 µM); in the test on Enterococcus faecalis it was more than 128 µg/mL; against Staphylococcus aureus [2], 128 µg/mL (≈ 411 µM); with Escherichia coli, more than 128 µg/mL; with Pseudomonas aeruginosa, more than 128 µg/mL. The MBC in the test with Streptococcus pneumoniae and against Streptococcus pyogenes was more than 128 µg/mL in each case.

Regarding `O=C1NC(=S)S/C1=C\CC1Oc2ccccc2N(Cc2ccc(Cl)cc2)C1=O` (stereo not drawn), the MIC in the test on Staphylococcus aureus [1] is 32 µg/mL (≈ 74.3 µM); in the test on Enterococcus faecalis, more than 128 µg/mL; in the test on Escherichia coli, more than 128 µg/mL; in the test on Pseudomonas aeruginosa it was more than 128 µg/mL.

As for `COc1cc(/C=C2\SC(=O)NC2=O)cc(OC)c1OC`, the MIC with Staphylococcus aureus [1], in the test on Enterococcus faecalis, in the test on Escherichia coli and against Pseudomonas aeruginosa was more than 128 µg/mL each time.

As to `Cl.NCCc1ccc(OCCC2Oc3ccccc3N(Cc3ccc(Cl)cc3)C2=O)cc1` (stereo not drawn), the values for the MIC with Staphylococcus aureus [1] and in the test with Enterococcus faecalis were 8 µg/mL and 16 µg/mL, respectively.

Consider `O=C1NC(=O)/C(=C/c2ccc(F)c(F)c2F)S1`, for which the MIC was 32 µg/mL (≈ 123 µM) with Staphylococcus aureus [1]; more than 128 µg/mL in the test with Enterococcus faecalis; 64 µg/mL (≈ 247 µM) against Staphylococcus aureus [2]; more than 128 µg/mL in the test on Escherichia coli; more than 128 µg/mL against Pseudomonas aeruginosa.

Regarding `O=C(O)CN1C(=O)/C(=C/c2ccc(F)c(F)c2F)SC1=S`, the MIC in the test on Staphylococcus aureus [1], against Enterococcus faecalis, against Escherichia coli and against Pseudomonas aeruginosa was more than 128 µg/mL each time.

For the compound `COc1cc(C=C2C(=O)NC(=O)NC2=O)cc(OC)c1OC`, the MIC against Staphylococcus aureus [1], against Enterococcus faecalis, against Escherichia coli and with Pseudomonas aeruginosa was more than 128 µg/mL throughout.

Take `O=C1NC(=O)C(=Cc2ccc(F)c(F)c2F)C(=O)N1`: the MIC against Staphylococcus aureus [1] was 32 µg/mL (≈ 118 µM); against Enterococcus faecalis, more than 128 µg/mL; against Staphylococcus aureus [2], 128 µg/mL (≈ 474 µM); in the test on Escherichia coli it was more than 128 µg/mL; with Pseudomonas aeruginosa, more than 128 µg/mL.

On to `COc1cc(/C=C2\SC(=S)N(CC(=O)O)C2=O)cc(OC)c1OC`, for which the MIC with Staphylococcus aureus [1], in the test with Enterococcus faecalis, in the test on Escherichia coli and against Pseudomonas aeruginosa was more than 128 µg/mL in each case.
